From PubChem BioAssay (NCI)
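These data come from cells grown in 96-well plates and exposed to compound for 48 hours at five concentrations. At the GI50, growth is halved. Definition used: TGI = concentration required for complete inhibition of growth.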

What was measured:
Assay in all cases: NCI tumour cell line growth inhibition, 48 h
MOLT-4 leukemia = tested on: MOLT-4 leukemia
UACC-257 melanoma = tested on: UACC-257 melanoma
RPMI-8226 leukemia = tested on: RPMI-8226 leukemia
NCI-H23 lung = tested on: NCI-H23 lung
KM12 colon = tested on: KM12 colon
SN12C renal = tested on: SN12C renal
TK-10 renal = tested on: TK-10 renal
HCT-15 colon = tested on: HCT-15 colon
NCI-H522 lung = tested on: NCI-H522 lung
NCI-H226 lung = tested on: NCI-H226 lung

Structure (SMILES)	TGI (MOLT-4 leukemia)	TGI (UACC-257 melanoma)	TGI (RPMI-8226 leukemia)	TGI (NCI-H23 lung)	TGI (KM12 colon)	TGI (SN12C renal)	TGI (TK-10 renal)	TGI (HCT-15 colon)	TGI (NCI-H522 lung)	TGI (NCI-H226 lung)	GI50 (MOLT-4 leukemia)	GI50 (RPMI-8226 leukemia)	GI50 (KM12 colon)	GI50 (SN12C renal)	GI50 (NCI-H23 lung)	GI50 (TK-10 renal)	GI50 (HCT-15 colon)	GI50 (UACC-257 melanoma)	GI50 (NCI-H226 lung)	GI50 (NCI-H522 lung)
CN(C)CCC(/C=C/c1ccccc1)=N\Nc1ccc(Cl)cc1	5.43 µM	14.5 µM	4.69 µM	20.9 µM	10.9 µM	7.03 µM	7.85 µM	15.2 µM	7.77 µM											
COc1ccc(C(=O)C/C(=N/NC(N)=S)C(=O)Nc2ccccc2)cc1	> 100 µM	> 100 µM	> 100 µM	> 100 µM	> 100 µM	> 100 µM	> 100 µM	> 100 µM		> 100 µM										
CCP(C)(C)=O	> 100 µM	> 100 µM	> 100 µM	> 100 µM	> 100 µM	> 100 µM	> 100 µM	> 100 µM												
Cc1ncc([N+](=O)[O-])n1CCNC(=O)Cn1ccnc1[N+](=O)[O-]	> 100 µM	> 100 µM		> 100 µM	> 100 µM	> 100 µM	> 100 µM	> 100 µM	> 100 µM	> 100 µM										
Cc1nc2ccccc2c(/C=C/c2ccccc2)c1C(=O)/C=C/c1ccc(Cl)cc1	6.49 µM		3.58 µM		4.78 µM	4.39 µM					1.09 µM	0.784 µM	1.86 µM	1.71 µM						
CC1(C)Cc2nnsc2C2=C1C(=O)CCS2	> 100 µM	> 100 µM	> 100 µM	> 100 µM	> 100 µM	> 100 µM	> 100 µM	> 100 µM	> 100 µM											
C=C(CN(C)Cc1ccccc1)c1ccc(C(=O)Nc2ccccc2N)cc1			> 50 µM	7.93 µM	7.26 µM		17.8 µM	12.2 µM				1.46 µM	1.23 µM		0.397 µM	7.12 µM	2.2 µM			
COc1cc2c(c(OC)c1OC)C(=O)c1c-2n(CCCN=[N+]=[N-])c(=O)c2cc([N+](=O)[O-])ccc12	> 100 µM	> 100 µM		> 100 µM	> 100 µM	> 100 µM	> 100 µM	> 100 µM	79.3 µM	> 100 µM	> 100 µM		> 100 µM	> 100 µM	50.8 µM	> 100 µM	> 100 µM	> 100 µM	> 100 µM	16.9 µM
NC(=NCCO)c1ccc(N2CCCN(c3ccc(C(N)=NCCO)cc3)CC2)cc1		> 100 µM		> 100 µM	> 100 µM	> 100 µM	> 100 µM	> 100 µM		> 100 µM			> 100 µM	8.8 µM	> 100 µM	> 100 µM	> 100 µM	> 100 µM	> 100 µM	
CC(=O)Oc1ccccc1C(=O)NCCC[Se]C#N	8.53 µM		6.04 µM	7.57 µM	16.7 µM	12.4 µM	3.82 µM	5.06 µM	3.5 µM	5.62 µM	2.46 µM	2.41 µM	2.84 µM	3.2 µM	2.58 µM	1.83 µM	2.08 µM		2.06 µM	1.62 µM
Oc1c(Cl)cc(CN(Cc2cc(Cl)c(O)c(Cl)c2)C2CCCCC2)cc1Cl	> 100 µM	> 100 µM	> 100 µM	> 100 µM	> 100 µM	> 100 µM	> 100 µM	> 100 µM	> 100 µM											
Nc1cc(N)cc(Cc2ccccc2)c1	> 100 µM	> 100 µM		> 100 µM	> 100 µM	> 100 µM	> 100 µM	> 100 µM	> 100 µM	> 100 µM										
Cc1cc(Cl)ccc1N1C(=O)C(=O)C(c2nc3ccccc3o2)C(=O)C1=O	> 100 µM	> 100 µM		> 100 µM	> 100 µM	> 100 µM	> 100 µM	> 100 µM	> 100 µM	> 100 µM										
O=C1[C@@H]2C(c3ccncc3)=NO[C@@H]2C(=O)N1c1ccc(Cc2ccc(N3C(=O)[C@H]4C(c5ccncc5)=NO[C@H]4C3=O)cc2)cc1	> 100 µM	> 100 µM	> 100 µM	> 100 µM	> 100 µM	> 100 µM	> 100 µM	> 100 µM		> 100 µM										
CCOC(=O)C(O)Cc1cnc2ccccc2n1 (configuration not stated)	> 100 µM	> 100 µM	> 100 µM	> 100 µM	> 100 µM	> 100 µM	> 100 µM	> 100 µM	> 100 µM											
